Laboratory results from patent US20070128217A1 (priority 2003, published 2007).

Assays:
[1] = tested on: antibodies in sera from SARS patients (sera 1a, 1b, 2, 6, 37, 62, London, SARS-yellow, SARS-green); type: binding, human; design: Binding of serum 6 to linear peptides of protein X1 of SARS-CoV Urbani / Binding of serum 37 to linear peptides of protein X1 of SARS-CoV Urbani / Binding of serum 6 to looped/cyclic peptide (PEPSCAN-ELISA) / Binding of serum 37 to looped/cyclic peptide (PEPSCAN-ELISA) / Binding of serum 37 to looped/cyclic peptides of protein X1 of SARS-CoV Urbani / Binding of serum 6 to linear peptides of protein X2 / Binding of serum 37 to linear peptides of protein X2 / Binding of serum 37 to looped/cyclic peptides of protein X2 of SARS-CoV Urbani / Binding of serum 6 to linear peptides of protein M of SARS-CoV Urbani / Binding of serum 37 to linear peptides of protein M of SARS-CoV Urbani / Binding of serum 6 to looped/cyclic peptides of protein M of SARS-CoV Urbani / Binding of serum 37 to looped/cyclic peptides of protein M of SARS-CoV Urbani / Binding of serum 6 to linear peptides of protein X3 of SARS-CoV Urbani / Binding of serum 37 to linear peptides of protein X3 of SARS-CoV Urbani / Binding of serum 37 to looped/cyclic peptides of protein X3 of SARS-CoV Urbani / Binding of serum 6 to linear peptides of protein X4 of SARS-CoV Urbani / Binding of serum 37 to linear peptides of protein X4 of SARS-CoV Urbani / Binding of serum 37 to looped/cyclic peptides of protein X4 of SARS-CoV Urbani / Binding of serum 6 to linear peptides of protein X5 of SARS-CoV Urbani / Binding of serum 37 to linear peptides of protein X5 of SARS-CoV Urbani / Binding of serum 37 to looped/cyclic peptides of protein X5 of SARS-CoV Urbani / Binding of serum 6 to linear peptides of protein N of SARS-CoV Urbani / Binding of serum 37 to linear peptides of protein N of SARS-CoV Urbani / Binding of serum 6 to linear peptide (PEPSCAN-ELISA) / Binding of serum 1a to looped/cyclic peptides of protein N of SARS-CoV Urbani / Binding of serum 1b to looped/cyclic peptides of protein N of SARS-CoV Urbani / Binding of serum 2 to looped/cyclic peptides of protein N of SARS-CoV Urbani / Binding of serum 6 to looped/cyclic peptides of protein N of SARS-CoV Urbani / Binding of serum 37 to looped/cyclic peptides of protein N of SARS-CoV Urbani / Binding of serum 62 to looped/cyclic peptides of protein N of SARS-CoV Urbani / Binding of serum London to looped/cyclic peptides of protein N of SARS-CoV Urbani / Binding of serum SARS-green to looped/cyclic peptides of protein N of SARS-CoV Urbani: unit not given here
[2] = tested on: rabbit serum obtained by immunizing a rabbit with the SARS-CoV strain Frankfurt 1; type: binding; design: Binding of a rabbit serum to linear peptides / Binding of a rabbit serum to looped peptides / Rabbit serum linear peptides / Rabbit serum looped peptides / Binding of a rabbit serum to linear peptides of protein N of SARS-CoV Urbani (Rabbit serum linear peptides) / Binding of a rabbit serum to looped/cyclic peptides of protein N of SARS-CoV Urbani (Rabbit serum looped peptides): unit not given here
[3] = tested on: recombinant human anti-SARS-CoV antibody 03-018; type: binding; design: Binding of antibody 03-018 to linear peptides of the N protein of SARS-CoV Urbani / Binding of antibody 03-018 to looped/cyclic peptides of the N protein of SARS-CoV Urbani: unit not given here
[4] = tested on: control sera (pooled serum of ten healthy LUMC hospital workers; commercial negative donor pooled serum from the Dutch bloodbank); type: binding, human; design: Binding of Control serum LUMC to linear peptides / Binding of Control serum Blood-bank to linear peptides / Binding of Control serum LUMC to looped peptides / Binding of Control Serum Blood-Bank to Looped peptides / Binding of Control serum LUMC to linear peptides of the protein M of SARS-CoV Urbani / Binding of Control serum Blood-bank to linear peptides of the protein M of SARS-CoV Urbani / Binding of Control serum LUMC to looped peptides of the protein M of SARS-CoV Urbani / Binding of Control Serum Blood-Bank to Looped peptides of the protein M of SARS-CoV Urbani: unit not given here

Row | Sequence | Binding of serum 1a to looped/cyclic peptides of protein N of SARS-CoV Urbani [1] | Binding of serum 1b to looped/cyclic peptides of protein N of SARS-CoV Urbani [1] | Binding of serum 2 to looped/cyclic peptides of protein N of SARS-CoV Urbani [1] | Binding of serum 6 to looped/cyclic peptides of protein N of SARS-CoV Urbani [1] | Binding of serum 37 to looped/cyclic peptides of protein N of SARS-CoV Urbani [1] | Binding of serum 62 to looped/cyclic peptides of protein N of SARS-CoV Urbani [1] | Binding of serum London to looped/cyclic peptides of protein N of SARS-CoV Urbani [1] | Binding of serum SARS-green to looped/cyclic peptides of protein N of SARS-CoV Urbani [1] | Binding of serum SARS-yellow to looped/cyclic peptides of protein N of SARS-CoV Urbani [1] | Binding of a rabbit serum to linear peptides of protein N of SARS-CoV Urbani (Rabbit serum linear peptides) [2] | Binding of a rabbit serum to looped/cyclic peptides of protein N of SARS-CoV Urbani (Rabbit serum looped peptides) [2] | Binding of antibody 03-018 to linear peptides of the N protein of SARS-CoV Urbani [3] | Binding of antibody 03-018 to looped/cyclic peptides of the N protein of SARS-CoV Urbani [3] | Binding of Control Serum Blood-Bank to Looped peptides [4] | Binding of Control serum Blood-bank to linear peptides [4] | Binding of Control serum LUMC to linear peptides [4] | Binding of Control serum LUMC to looped peptides [4] | Binding of serum 1a to linear peptides of protein N of SARS-CoV Urbani [1] | Binding of serum 1b to linear peptides of protein N of SARS-CoV Urbani [1] | Binding of serum 2 to linear peptides of protein N of SARS-CoV Urbani [1] | also measured
1 | QTVTKKSAAEASKKP | 0.3 | 0.2 | 0.4 | 0.2 | 0.5 | 0.3 | 0.3 | 0.0 | 0.2 | 0.2 | 0.3 | 0.1 | 0.2 | 0.5 | 0.8 | 0.9 | 0.5 |  |  |  | Recognition of the peptide by sera of SARS-CoV infected individuals, and form (linear, looped/cyclic) in which it is recognized [1]: recognized in linear form
2 | RATRRVRGGDGKMKE | 0.2 | 0.1 | 0.2 | 0.1 | 0.5 | 0.2 | 0.2 | 0.0 | 0.3 | 0.2 | 0.2 | 0.1 | 0.2 | 0.4 | 0.8 | 0.7 | 0.3 | 0.2 | 0.1 | 0.4 | Binding of serum 6 to linear peptides of protein N of SARS-CoV Urbani [1]: 0.2; Binding of serum 37 to linear peptides of protein N of SARS-CoV Urbani [1]: 0.8; Binding of serum 62 to linear peptides of protein N of SARS-CoV Urbani [1]: 0.7; Binding of serum London to linear peptides of protein N of SARS-CoV Urbani [1]: 0.5; Binding of serum SARS-green to linear peptides of protein N of SARS-CoV Urbani [1]: 0.3; Binding of serum SARS-yellow to linear peptides of protein N of SARS-CoV Urbani [1]: 0.6
3 | RGGDGKMKELSPRWY | 0.3 | 0.2 | 0.4 | 0.3 | 0.5 | 0.4 | 0.4 | 0.3 | 0.4 | 0.1 | 0.4 | 0.1 | 0.2 | 0.6 | 0.6 | 0.6 | 0.6 | 0.2 | 0.1 | 0.2 | Binding of serum 6 to linear peptides of protein N of SARS-CoV Urbani [1]: 0.2; Binding of serum 37 to linear peptides of protein N of SARS-CoV Urbani [1]: 0.7; Binding of serum 62 to linear peptides of protein N of SARS-CoV Urbani [1]: 0.6; Binding of serum London to linear peptides of protein N of SARS-CoV Urbani [1]: 0.5; Binding of serum SARS-green to linear peptides of protein N of SARS-CoV Urbani [1]: 0.3; Binding of serum SARS-yellow to linear peptides of protein N of SARS-CoV Urbani [1]: 0.6
4 | RGGSQASSRSSSRSR | 0.2 | 0.2 | 0.4 | 0.3 | 0.2 | 0.1 | 0.1 | 0.2 | 0.3 | 0.3 | 0.7 | 0.1 | 0.1 | 0.4 | 0.8 | 0.8 | 0.6 |  |  |  | Binding of serum 1a to linear peptide (PEPSCAN-ELISA) [1]: 0.3; Binding of serum 1b to linear peptide (PEPSCAN-ELISA) [1]: 0.1; Binding of serum 2 to linear peptide (PEPSCAN-ELISA) [1]: 0.3; Binding of serum 6 to linear peptide (PEPSCAN-ELISA) [1]: 0.4; Binding of serum 37 to linear peptide (PEPSCAN-ELISA) [1]: 0.7; Binding of serum 62 to linear peptide (PEPSCAN-ELISA) [1]: 0.7; Binding of serum London to linear peptide (PEPSCAN-ELISA) [1]: 0.5; Binding of serum SARS-green to linear peptide (PEPSCAN-ELISA) [1]: 0.3; Binding of serum SARS-yellow to linear peptide (PEPSCAN-ELISA) [1]: 0.7
5 | RGNSRNSTPGSSRGN | 0.8 | 0.6 | 0.4 | 0.4 | 0.6 | 0.5 | 0.4 | 0.3 | 0.5 | 0.2 | 0.7 | 0.1 | 0.2 | 0.6 | 0.8 | 0.6 | 0.6 |  |  |  | Binding of serum 1a to linear peptide (PEPSCAN-ELISA) [1]: 0.7; Binding of serum 1b to linear peptide (PEPSCAN-ELISA) [1]: 0.4; Binding of serum 2 to linear peptide (PEPSCAN-ELISA) [1]: 0.2; Binding of serum 6 to linear peptide (PEPSCAN-ELISA) [1]: 0.2; Binding of serum 37 to linear peptide (PEPSCAN-ELISA) [1]: 0.7; Binding of serum 62 to linear peptide (PEPSCAN-ELISA) [1]: 0.7; Binding of serum London to linear peptide (PEPSCAN-ELISA) [1]: 0.4; Binding of serum SARS-green to linear peptide (PEPSCAN-ELISA) [1]: 0.2; Binding of serum SARS-yellow to linear peptide (PEPSCAN-ELISA) [1]: 0.8
